Legend:
Cbl-b = Cbl-b (Homo sapiens (Human), UniProt Q13191); test: Cbl-b LCK Ub TR-FRET assay (Cbl-b Lck HTRF); assay type: biochemical
In short: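 TR-FRET (340 nm excitation, 615/665 nm emission) read after adding HA-ubiquitin–UBE2D2 thioester, anti-HA-D2 and streptavidin-Eu. Beforehand, compounds incubated 60 min with biotinylated Cbl-b, then 90 min with His-LCK and ATP (1 mM in 2× mix); IC50 from 10 concentrations, DMSO high and no-LCK low controls.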

c-Cbl = c-Cbl (Homo sapiens (Human), UniProt P22681); test: C-Cbl LCK Ub TR-FRET assay (c-cbl Lck HTRF); assay type: biochemical; conditions: for (fold-selectivity): C-cbl Lck HTRF IC50 relative to Cbl-b Lck HTRF IC50
In short: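 Detection reagents added, brief spin, 20 min RT. IC50 fit normalized to no-LCK (low) and DMSO (high) controls.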

Sequence of c-Cbl (P22681 47-435): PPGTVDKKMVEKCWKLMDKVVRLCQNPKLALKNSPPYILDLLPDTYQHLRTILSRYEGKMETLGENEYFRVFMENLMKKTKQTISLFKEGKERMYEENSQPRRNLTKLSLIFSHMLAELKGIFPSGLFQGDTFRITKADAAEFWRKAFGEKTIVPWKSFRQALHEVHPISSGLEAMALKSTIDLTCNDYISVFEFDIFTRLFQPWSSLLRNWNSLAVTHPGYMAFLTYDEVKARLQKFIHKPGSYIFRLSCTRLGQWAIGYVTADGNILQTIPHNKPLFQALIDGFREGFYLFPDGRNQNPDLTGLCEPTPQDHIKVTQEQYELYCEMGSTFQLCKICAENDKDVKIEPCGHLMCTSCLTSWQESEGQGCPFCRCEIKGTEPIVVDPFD
Sequence of Cbl-b (Q13191 40-426): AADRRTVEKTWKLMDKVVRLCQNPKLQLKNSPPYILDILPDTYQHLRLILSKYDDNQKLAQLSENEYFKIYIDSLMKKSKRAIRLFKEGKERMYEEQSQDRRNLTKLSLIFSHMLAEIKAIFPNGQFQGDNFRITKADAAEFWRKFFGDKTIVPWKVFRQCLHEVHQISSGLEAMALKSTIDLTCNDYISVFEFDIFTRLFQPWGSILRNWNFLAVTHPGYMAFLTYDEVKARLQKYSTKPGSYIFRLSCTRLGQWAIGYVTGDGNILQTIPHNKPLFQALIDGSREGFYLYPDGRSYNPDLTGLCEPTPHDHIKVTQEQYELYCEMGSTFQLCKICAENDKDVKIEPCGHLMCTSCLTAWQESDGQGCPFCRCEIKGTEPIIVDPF

Row | Compound | IC50 (Cbl-b) [nM] | IC50 (c-Cbl) [nM] | (fold-selectivity) (c-Cbl) [x] | fold of selectivity (Cbl-b; Cbl-b over c-Cbl, Lck HTRF IC50) [x]
1 | CC(=O)N1CCN(Cc2cc3c(c(C(F)(F)F)c2)CN(c2cccc(C4([C@@H](F)c5nncn5C)COC4)c2)C3=O)[C@@H](C(C)C)C1 [Compound 193, 6-(((S)-4-acetyl-2-isopropylpiperazin-1-yl)methyl)-2-(3-(3-((R)-fluoro(4-methyl-4H-1,2,4-triazol-3-yl)methyl)oxetan-3-yl)phenyl)-4-(trifluoromethyl)isoindolin-1-one] | 72 | 190 | 2.6 | 
2 | CC(=O)N1CCN(Cc2cc3c(c(C(F)(F)F)c2)CN(c2cccc(C4([C@H](F)c5nncn5C)COC4)c2)C3=O)[C@@H](C(C)C)C1 [Compound 194, 6-(((S)-4-acetyl-2-isopropylpiperazin-1-yl)methyl)-2-(3-(3-((S)-fluoro(4-methyl-4H-1,2,4-triazol-3-yl)methyl)oxetan-3-yl)phenyl)-4-(trifluoromethyl)isoindolin-1-one] | 270 | 810 | 3.0 | 
3 | CC(C)[C@H]1CN(S(C)(=O)=O)CCN1Cc1cc2c(c(C(F)(F)F)c1)CN(c1cccc(C3([C@H](F)c4nncn4C)COC3)c1)C2=O [Compound 196, 2-(3-(3-((S)-fluoro(4-methyl-4H-1,2,4-triazol-3-yl)methyl)oxetan-3-yl)phenyl)-6-(((S)-2-isopropyl-4-(methylsulfonyl)piperazin-1-yl)methyl)-4-(trifluoromethyl)isoindolin-1-one] | 240 | 660 | 2.8 | 
4 | CC(C)[C@H]1CN(CC(F)(F)F)CCN1Cc1cc2c(c(C(F)(F)F)c1)CN(c1cccc(C3([C@H](F)c4nncn4C)COC3)c1)C2=O [Compound 201, 2-(3-(3-((S)-fluoro(4-methyl-4H-1,2,4-triazol-3-yl)methyl)oxetan-3-yl)phenyl)-6-(((S)-2-isopropyl-4-(2,2,2-trifluoroethyl)piperazin-1-yl)methyl)-4-(trifluoromethyl)isoindolin-1-one] | 220 | 3000 | 13 | 13.6
5 | CC(C)[C@H]1CN(CC(F)(F)F)CCN1Cc1cc2c(c(C(F)(F)F)c1)CN(c1cccc(C3([C@@H](F)c4nncn4C)COC3)c1)C2=O [Compound 202, 2-(3-(3-((R)-fluoro(4-methyl-4H-1,2,4-triazol-3-yl)methyl)oxetan-3-yl)phenyl)-6-(((S)-2-isopropyl-4-(2,2,2-trifluoroethyl)piperazin-1-yl)methyl)-4-(trifluoromethyl)isoindolin-1-one] | 150 | 400 | 2.6 | 
6 | Cn1cnnc1[C@H](F)C1(c2cccc(N3Cc4c(Br)cccc4C3=O)c2)COC1 [Compound 203, (R)-4-bromo-2-(3-(3-(fluoro(4-methyl-4H-1,2,4-triazol-3-yl)methyl)oxetan-3-yl)phenyl)isoindolin-1-one] | 200 | 400 | 2.0 | 
7 | Cn1cnnc1[C@H](F)C1(c2cccc(N3Cc4c(Cl)cccc4C3=O)c2)COC1 [Compound 204, (R)-4-chloro-2-(3-(3-(fluoro(4-methyl-4H-1,2,4-triazol-3-yl)methyl)oxetan-3-yl)phenyl)isoindolin-1-one] | 210 | 660 | 3.1 | 
8 | Cn1cnnc1[C@H](F)C1(c2cccc(N3Cc4c(I)cccc4C3=O)c2)COC1 [Compound 205, (R)-2-(3-(3-(fluoro(4-methyl-4H-1,2,4-triazol-3-yl)methyl)oxetan-3-yl)phenyl)-4-iodoisoindolin-1-one] | 290 | 770 | 2.7 | 
9 | COc1cccc2c1CN(c1cccc(C3([C@@H](F)c4nncn4C)COC3)c1)C2=O [Compound 206, (R)-2-(3-(3-(fluoro(4-methyl-4H-1,2,4-triazol-3-yl)methyl)oxetan-3-yl)phenyl)-4-methoxyisoindolin-1-one] | 1500 | 2300 | 1.5 | 
10 | CC(C)Oc1cccc2c1CN(c1cccc(C3([C@@H](F)c4nncn4C)COC3)c1)C2=O [Compound 207, (R)-2-(3-(3-(fluoro(4-methyl-4H-1,2,4-triazol-3-yl)methyl)oxetan-3-yl)phenyl)-4-isopropoxyisoindolin-1-one] | 4500 | 13000 | 2.8 | 
11 | Cc1cccc2c1CN(c1cccc(C3([C@@H](F)c4nncn4C)COC3)c1)C2=O [Compound 208, (R)-2-(3-(3-(fluoro(4-methyl-4H-1,2,4-triazol-3-yl)methyl)oxetan-3-yl)phenyl)-4-methylisoindolin-1-one] | 1400 | 2100 | 1.5 | 
12 | CCc1cccc2c1CN(c1cccc(C3([C@@H](F)c4nncn4C)COC3)c1)C2=O [Compound 209] | 1100 | 1900 | 1.7 | 
13 | Cn1cnnc1[C@H](F)C1(c2cccc(N3Cc4c(cccc4-c4ccccc4)C3=O)c2)COC1 [Compound 210, (R)-2-(3-(3-(fluoro(4-methyl-4H-1,2,4-triazol-3-yl)methyl)oxetan-3-yl)phenyl)-4-phenylisoindolin-1-one] | > 20000 | > 20000 | 1.0 | 

Now those with a lower IC50 (Cbl-b), led by results:

Row | IC50 (Cbl-b) [nM] | IC50 (c-Cbl) [nM] | (fold-selectivity) (c-Cbl) [x] | fold of selectivity (Cbl-b; Cbl-b over c-Cbl, Lck HTRF IC50) [x] | Compound
14 | 13 | 25 | 2.0 |  | CC(C)[C@H]1CN(C)CCN1Cc1cc2c(c(C(F)(F)F)c1)CN(c1cccc(C3([C@H](F)c4nncn4C)COC3)c1)C2=O [Compound 188, 2-(3-(3-((S)-fluoro(4-methyl-4H-1,2,4-triazol-3-yl)methyl)oxetan-3-yl)phenyl)-6-(((S)-2-isopropyl-4-methylpiperazin-1-yl)methyl)-4-(trifluoromethyl)isoindolin-1-one]
15 | 47 | 38 | 0.82 |  | CC(C)[C@H]1CN(C)CCN1Cc1cc2c(c(C(F)(F)F)c1)CN(c1cccc(C3([C@H](F)c4nncn4C)CC(F)(F)C3)c1)C2=O [Compound 190, 2-(3-(3,3-difluoro-1-((S)-fluoro(4-methyl-4H-1,2,4-triazol-3-yl)methyl)cyclobutyl)phenyl)-6-(((S)-2-isopropyl-4-methylpiperazin-1-yl)methyl)-4-(trifluoromethyl)isoindolin-1-one]
16 | 35 | 52 | 1.5 |  | C[C@@H](N)c1cc2c(c(C(F)(F)F)c1)CN(c1cccc(C3([C@@H](F)c4nncn4C)COC3)c1)C2=O [Compound 191, 6-((R)-1-aminoethyl)-2-(3-(3-((R)-fluoro(4-methyl-4H-1,2,4-triazol-3-yl)methyl)oxetan-3-yl)phenyl)-4-(trifluoromethyl)isoindolin-1-one]
17 | 32 | 53 | 1.6 |  | C[C@H](N)c1cc2c(c(C(F)(F)F)c1)CN(c1cccc(C3([C@@H](F)c4nncn4C)COC3)c1)C2=O [Compound 192, 6-((S)-1-aminoethyl)-2-(3-(3-((R)-fluoro(4-methyl-4H-1,2,4-triazol-3-yl)methyl)oxetan-3-yl)phenyl)-4-(trifluoromethyl)isoindolin-1-one]
18 | 53 | 110 | 2.0 |  | CC(C)[C@H]1CN(S(C)(=O)=O)CCN1Cc1cc2c(c(C(F)(F)F)c1)CN(c1cccc(C3([C@@H](F)c4nncn4C)COC3)c1)C2=O [Compound 195, 2-(3-(3-((R)-fluoro(4-methyl-4H-1,2,4-triazol-3-yl)methyl)oxetan-3-yl)phenyl)-6-(((S)-2-isopropyl-4-(methylsulfonyl)piperazin-1-yl)methyl)-4-(trifluoromethyl)isoindolin-1-one]
19 | 8 | 13 | 1.6 |  | CC(C)[C@H]1CN(CCF)CCN1Cc1cc2c(c(C(F)(F)F)c1)CN(c1cccc(C3([C@@H](F)c4nncn4C)COC3)c1)C2=O [Compound 197, 2-(3-(3-((R)-fluoro(4-methyl-4H-1,2,4-triazol-3-yl)methyl)oxetan-3-yl)phenyl)-6-(((S)-4-(2-fluoroethyl)-2-isopropylpiperazin-1-yl)methyl)-4-(trifluoromethyl)isoindolin-1-one]
20 | 14 | 21 | 1.5 |  | CC(C)[C@H]1CN(CCF)CCN1Cc1cc2c(c(C(F)(F)F)c1)CN(c1cccc(C3([C@H](F)c4nncn4C)COC3)c1)C2=O [Compound 198, 2-(3-(3-((S)-fluoro(4-methyl-4H-1,2,4-triazol-3-yl)methyl)oxetan-3-yl)phenyl)-6-(((S)-4-(2-fluoroethyl)-2-isopropylpiperazin-1-yl)methyl)-4-(trifluoromethyl)isoindolin-1-one]
21 | 19 | 56 | 2.9 |  | CC(C)[C@H]1CN(C2COC2)CCN1Cc1cc2c(c(C(F)(F)F)c1)CN(c1cccc(C3([C@H](F)c4nncn4C)COC3)c1)C2=O [Compound 199, 2-(3-(3-((S)-fluoro(4-methyl-4H-1,2,4-triazol-3-yl)methyl)oxetan-3-yl)phenyl)-6-(((S)-2-isopropyl-4-(oxetan-3-yl)piperazin-1-yl)methyl)-4-(trifluoromethyl)isoindolin-1-one]
22 | 27 | 39 | 1.5 |  | CC(C)[C@H]1CN(C2COC2)CCN1Cc1cc2c(c(C(F)(F)F)c1)CN(c1cccc(C3([C@@H](F)c4nncn4C)COC3)c1)C2=O [Compound 200, 2-(3-(3-((R)-fluoro(4-methyl-4H-1,2,4-triazol-3-yl)methyl)oxetan-3-yl)phenyl)-6-(((S)-2-isopropyl-4-(oxetan-3-yl)piperazin-1-yl)methyl)-4-(trifluoromethyl)isoindolin-1-one]
